Source: the NIST ThermoML archive (doi:10.1016/j.jct.2013.03.002)
± gives the expanded uncertainty stated by the source.

Conditions: Liquid; for Critical pressure: Direct measurement; for Critical temperature: Visual observation in an unstirred cell

In the case of `COC(C)(C)C` [2-methoxy-2-methylpropane], the Critical pressure is reported as 3448 ± 30 kPa and the Critical temperature is reported as 497 ± 2.4 K.
In the case of `C1CCCCC1` [cyclohexane], the Critical pressure is reported as 4110 ± 30 kPa and the Critical temperature is reported as 554.1 ± 2.4 K.
Work on `CCO` [ethanol] yielded a Critical pressure of 6135 ± 30 kPa and a Critical temperature of 514.2 ± 2.4 K.
`CCCCCCC` [heptane] gave a Critical pressure of 2761 ± 30 kPa and a Critical temperature of 540 ± 2.4 K.
Work on `CCCCCC` [hexane] yielded a Critical pressure of 3030 ± 30 kPa and a Critical temperature of 507.9 ± 2.4 K.
`CO` [methanol] gave a Critical pressure of 8128 ± 30 kPa and a Critical temperature of 512.3 ± 2.4 K.
For `CCCO` [propan-1-ol], the Critical pressure was 5172 ± 30 kPa and the Critical temperature was 537 ± 2.4 K.
